Reference: article PMC4351541 (Scientific Reports, 2015)

Columns and labels:
[1] = biological target: nAChRs (L. migratoria manilensis α1 and R. norvegicus β2) (Locusta migratoria manilensis, UniProt P12390+W6ECM5); test: Two-electrode voltage-clamp agonist dose-response on nAChRs expressed in Xenopus oocytes, with or without Na+/K+ ATPase; format: cell-based; details: for effect of Na^+/K^+ ATPase co-expression on agonist sensitivity: co-expression of Na^+/K^+ ATPase vs nAChRs alone, increase not removed by ouabain
nAChRs (L. migratoria manilensis α1 and R. norvegicus β2), sequence (W6ECM5 21-570): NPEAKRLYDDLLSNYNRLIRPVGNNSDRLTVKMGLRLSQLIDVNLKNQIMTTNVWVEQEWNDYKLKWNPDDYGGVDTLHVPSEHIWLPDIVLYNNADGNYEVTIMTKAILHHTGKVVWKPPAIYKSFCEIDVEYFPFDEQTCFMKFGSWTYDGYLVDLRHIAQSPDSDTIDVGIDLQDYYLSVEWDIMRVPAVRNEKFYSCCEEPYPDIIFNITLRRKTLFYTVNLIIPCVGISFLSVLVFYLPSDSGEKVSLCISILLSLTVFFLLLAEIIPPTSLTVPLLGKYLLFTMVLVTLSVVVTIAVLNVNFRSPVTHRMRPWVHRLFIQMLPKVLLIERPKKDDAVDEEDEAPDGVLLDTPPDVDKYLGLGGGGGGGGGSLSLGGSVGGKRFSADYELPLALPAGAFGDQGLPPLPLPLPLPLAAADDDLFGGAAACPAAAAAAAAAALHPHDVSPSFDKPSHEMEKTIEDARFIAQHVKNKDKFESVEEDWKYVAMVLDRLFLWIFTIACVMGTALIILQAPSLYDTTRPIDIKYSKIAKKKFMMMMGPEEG
nAChRs (L. migratoria manilensis α1 and R. norvegicus β2), sequence (P12390 25-500): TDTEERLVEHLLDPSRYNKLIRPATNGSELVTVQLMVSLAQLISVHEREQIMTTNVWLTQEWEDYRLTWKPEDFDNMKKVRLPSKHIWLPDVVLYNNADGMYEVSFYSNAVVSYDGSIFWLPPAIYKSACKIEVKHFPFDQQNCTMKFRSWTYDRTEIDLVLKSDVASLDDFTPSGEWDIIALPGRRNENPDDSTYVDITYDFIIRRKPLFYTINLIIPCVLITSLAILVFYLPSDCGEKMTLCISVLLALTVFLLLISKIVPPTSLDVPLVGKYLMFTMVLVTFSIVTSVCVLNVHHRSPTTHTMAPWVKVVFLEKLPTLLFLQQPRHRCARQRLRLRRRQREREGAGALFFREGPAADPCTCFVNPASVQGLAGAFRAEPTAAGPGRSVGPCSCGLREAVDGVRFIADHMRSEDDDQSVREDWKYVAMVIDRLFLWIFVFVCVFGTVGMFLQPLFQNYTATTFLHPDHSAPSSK
Text: To characterize the influence of Na^+/K^+ ATPase on nAChR function, nAChRs were expressed with or without Na^+/K^+ ATPase in Xenopus oocytes.
(B) Does-response curves for nicotine. (C) Does-response curves for imidacloprid. The curves from the oocytes expressing nAChRs (L. migratoria manilensis subunit α1 and R. norvegicus subunit β2) were indicated by open squares. The curves from the oocytes co-expressing nAChRs and Na^+/K^+ ATPase (subunit α1 and β1) were indicated by solid triangles (without ouabain) and open triangles (with ouabain).
(§1) The L. migratoria manilensis subunit α1 (KF813096) and subunit β1 (KF813099) of Na^+/k^+ ATPase, and subunit α1 (KF873578) of nAhCRs were subcloned into the expression vector pGH19 at sites of BamHIand XbaI, BamHI and ApaI, and EcoRI and XbaI, respectively. Rattus norvegicus β2 subunit (L31622) was also subcloned into the expression vector pGH19 as described previously. The cRNAs of all subunits were generated as described previously. Xenopus oocyte preparation and cRNA injection were performed as described previously. Electrophysiological recordings were made using a two-electrode voltage clamp (Multiclamp 700B Amplifier; Axon Instruments, Foster, CA, USA) as previously described. The measurement of the current of Na^+/K^+ ATPase was performed as described.
Differences in responses (currents), Imax and EC50 values were analyzed by one-way ANOVA with at least three repeats (different batches of oocytes from different frogs). Multiple comparisons between the groups were performed using S-N-K method. The level of significance for results was set at p < 0.05.

[2] = system: Na^+/K^+ ATPase (α1 and β1); test: Pump-mediated steady-state current of Na+/K+ ATPase in Xenopus oocytes (two-electrode voltage clamp); format: cell-based, Locusta migratoria manilensis; details: for effect on Na^+/K^+ ATPase steady-state current directly: oocytes expressing Na^+/K^+ ATPase without nAChRs, 1 μM nicotine and 1 μM DHβE
Method: as §1

SMILES | EC50 ([1]; oocytes only expressing nAChRs) [µM] | effect on Na^+/K^+ ATPase steady-state current directly [2] | effect of Na^+/K^+ ATPase co-expression on agonist sensitivity [1] | steady state current of Na^+/K^+ ATPase ([2]; oocytes co-expressing Na^+/K^+ ATPase and nAChRs, 1 μM nicotine, with 1 μM DHβE to suppress nAChR currents)
CC(=O)OCC[N+](C)(C)C [ACh, acetylcholine] | 63.2 ± 5.14 | – | – | –
CO[C@H]1CC=C2CCN3CCC4=C(CC(=O)OC4)[C@]23C1 [DHβE, dihydro-β-erythroidine] | – | no effects | – | –
O=[N+]([O-])NC1=NCCN1Cc1ccc(Cl)nc1 [imidacloprid] | – | – | increase agonist sensitivities | –
CN1CCC[C@H]1c1cccnc1 [nicotine] | – | no effects | increase agonist sensitivities | increased significantly
